# Assay results reported in patent publication US20230271949A1, “GLP-1R MODULATING COMPOUNDS” (ASCLETIS BIOSCIENCE CO., LTD., priority 2022, published 2023).
# Target: GLP-1R (Homo sapiens, UniProt P43220)
# Assay: GLP-1R agonist cAMP stimulation assay (HTRF cAMP)
# Type: cell-based
# Conditions: HEK293 cell line expressing GLP-1 target; HTRF cAMP agonist mode, 30 min at RT
# Procedure: cAMP Detection Kit, Cisbio (Cat #62AM4PEJ)
# The cell line was constructed by WuXi.
# 2. Methods • a) The compound source plate preparation: • The reference 7-37 was diluted from 500 nM, 4-fold, 10 points in DMSO using Bravo. The compounds were diluted from […], 3-fold, 10 points in DMSO using Bravo. • b) Transfer of compounds: • 1) Use Echo transfer 100 nL cpd to the OptiPlate-384 plate. • 2) Spin the plates at 1000 rpm for 5 sec. • c) Cell suspension preparation: • 1) Thaw 1 vial of GLP-1 cells rapidly in 37° C. water bath. • 2) Transfer cell suspension into 10 ml of HBSS in a 15 ml conical tube. • 3) Centrifuge cells at 1000 rpm for 5 min at room temperature to pellet cells • 4) Gently aspirate supernatant being careful not to aspirate cells. • 5) Flick pellet to loose cells and re-suspend the cell pellet in 10 ml HBSS. Use a sterile pipette to pipette up and down to dislodge clumps. • 6) Count cells for concentration and to determine cell viability on Vi-cell. • 7) Re-suspend the GLP-1 cells in assay buffer at a concentration of 1.0×E5/mL cells. • 8) Transfer 10 μL GLP-1 cells to OptiPlate-384 plate. • d) HTRF cAMP Assay for agonist: • 1) Incubate the plate at RT for 30 min before adding the detection reagent. • 2) Add 10 μL each of detection reagent using Electric Multiple Channel Pipette. • 3) Cover the 384 plate with TopSeal-A film and incubate for 60 minutes at room temperature. • Remove the TopSeal-A, read on EnVision.
# Create a new log (Inhibitor) vs response—Variable slope mode in Prism5.0 software, substitute the standard curve concentration (x) and its corresponding 665/615 data (y) into the model, convert the standard curve concentration (abscissa) by x=log(x), and make the standard curve through the converted xy.
# Transform the data of 665/615 in the whole plate into a column of data, substitute it into y in the table of standard curve concentration (x) and 665/615 data (y), copy the x (interpolatedx) corresponding to automatic conversion by the software into a table, convert it into cAMP level by the formula x=10^(x), and reset the data into 384 distribution.
# % Activity=(cAMP level−LC)/(HC−LC)*100% • Z factor: 1-3*(STD_HC+[…])/(HC-LC) • Assay Window: HC/LC • LC: The average cAMP level of adding DMSO wells • HC: The average cAMP level of adding the top concentration of reference compounds wells.
# Create a new […] in Prism5.0 software, substitute the sample concentration (x) and its corresponding % Activity data (y) into the model, convert the standard curve concentration (abscissa) to x=log(x), and make the sample curve through the converted xy.
# GLP-1R, sequence (P43220 24-463): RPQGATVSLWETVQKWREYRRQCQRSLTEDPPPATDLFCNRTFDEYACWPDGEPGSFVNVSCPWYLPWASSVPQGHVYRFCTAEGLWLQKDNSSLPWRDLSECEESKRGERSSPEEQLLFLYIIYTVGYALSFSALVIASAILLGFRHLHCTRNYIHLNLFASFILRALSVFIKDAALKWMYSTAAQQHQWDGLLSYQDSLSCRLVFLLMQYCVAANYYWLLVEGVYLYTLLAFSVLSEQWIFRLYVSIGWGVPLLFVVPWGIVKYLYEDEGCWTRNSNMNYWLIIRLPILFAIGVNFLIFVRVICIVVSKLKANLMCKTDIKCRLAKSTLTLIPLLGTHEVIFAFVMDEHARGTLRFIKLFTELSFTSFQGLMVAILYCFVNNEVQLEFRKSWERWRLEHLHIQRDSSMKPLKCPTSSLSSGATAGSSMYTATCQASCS
row,EC50 [nM],Compound
1,2.81,Cc1n[nH]c2c(C(F)(F)F)cc(NC(=O)c3ccc4c(c3)nc(CN3CC=C(c5cccc6c5O[C@](C)(c5ccc(Cl)cc5F)O6)CC3)n4CC3CCO3)cc12 (stereo partly drawn) [Compound 389]
2,6.91,Cc1n[nH]c2ccc(NC(=O)c3ccc4c(c3)nc(CN3CCC(c5cccc(OCc6c(F)cnc7ccccc67)n5)CC3)n4C[C@@H]3CCO3)cc12 [Compound 380]
3,10.3,CC(=O)c1n[nH]c2ccc(C(=O)Nc3ccc4c(c3)nc(CN3CC=C(c5cccc(OCc6ccc(Cl)cc6F)n5)CC3)n4C[C@@H]3CCO3)cc12 [Compound 395]
4,12.7,CC1(c2ccc(Cl)cc2F)Oc2cccc(C3=CCN(Cc4nc5cc(C(=O)Nc6ccc7[nH]nc(F)c7c6)ccc5n4CC4CCO4)CC3)c2O1 (stereo not drawn) [Compound 328]
5,3.12,Cc1n[nH]c2c(F)cc(NC(=O)c3ccc4c(c3)nc(CN3CCC(c5cccc(OCc6ccc(C#N)c7c6ncn7C)n5)CC3)n4C[C@@H]3CCO3)cc12 [Compound 379]
6,0.63,CC1(c2ccc(Cl)cc2F)Oc2cccc(C3=CCN(Cc4nc5cc(NC(=O)c6cc(F)c7c(c6)C6(CC6)C(=O)N7)ccc5n4C[C@@H]4CCO4)CC3)c2O1 (stereo partly drawn) [Compound 314]
7,3.1,CCn1cncc1Cn1c(Cc2c(F)cc(-c3cccc4c3O[C@](C)(c3ccc(Cl)cn3)O4)cc2F)nc2cc(NC(=O)c3cc(F)c4[nH]nc(C)c4c3)ccc21 [Compound 412]
8,0.82,Cc1n[nH]c2c(C(F)(F)F)cc(NC(=O)c3ccc4c(c3)nc(CN3CC=C(c5cccc6c5O[C@@](C)(c5ccc(Cl)cc5F)O6)CC3)n4CC3CCO3)cc12 (stereo partly drawn) [Compound 388]
9,0.31,CCn1cncc1Cn1c(CN2CC=C(c3cccc4c3OC(C)(c3ccc(Cl)cn3)O4)CC2)nc2cc(NC(=O)c3cc(F)c4[nH]nc(C)c4c3)ccc21 (stereo not drawn) [Compound 410]
10,39.9,Cc1n[nH]c2c(C)cc(NC(=O)c3cc4c(nc(CN5CC=C(c6cccc(OCc7ccc(Cl)cc7F)n6)CC5)n4C[C@@H]4CCO4)s3)cc12 [Compound 405]
11,1.62,Cc1cc2c(C#N)ccc(COc3cccc(C4=CCN(Cc5nc6cc(NC(=O)c7ccc8[nH]nc(C(F)(F)F)c8c7)ccc6n5C[C@@H]5CCO5)CC4)n3)c2o1 [Compound 359]
12,0.37,Cc1n[nH]c2c(F)cc(NC(=O)c3ccc4c(c3)nc(CN3CC=C(c5cccc6c5O[C@@](C)(c5ccc(C#N)cc5F)O6)CC3)n4CC3CCO3)cc12 (stereo partly drawn) [Compound 298]
13,3.96,C=C(C)c1n[nH]c2ccc(C(=O)Nc3ccc4c(c3)nc(Cc3c(F)cc(-c5cccc6c5OC(C)(c5ccc(Cl)cc5F)O6)cc3F)n4CC3CCO3)cc12 (stereo not drawn) [Compound 327]
14,0.51,Cc1cc2c(C#N)ccc(COc3cccc(C4=CCN(Cc5nc6cc(C(=O)Nc7cc(F)c8[nH]nc(C)c8c7)ccc6n5C[C@@H]5CCO5)CC4)n3)c2s1 [Compound 350]
15,23.2,O=C(Nc1nc2[nH]cnc2s1)c1ccc2c(c1)nc(CN1CC=C(c3cccc(OCc4ccc(Cl)cc4F)n3)CC1)n2C[C@@H]1CCO1 [Compound 403]

# More lines, now with the values behind:
row,Compound,EC50 [nM]
1,N#Cc1ccc(COc2cccc(C3CCN(Cc4nc5cc(C(=O)NCC(=O)N6C[C@@H](O)C[C@H]6C(=O)O)ccc5n4C[C@@H]4CCO4)CC3)n2)c(F)c1 [Compound 56],0.97
2,O=C(Nc1cc(C(F)(F)F)c2[nH]nc(C3CC3)c2c1)c1ccc2c(c1)nc(CN1CC=C(c3cccc(OCc4ccc(Cl)cc4F)n3)CC1)n2C[C@@H]1CCO1 [Compound 163],0.99
3,O=C(Nc1ccc2c(c1)nc(CN1CC=C(c3cccc(OCc4ccc(Cl)cn4)n3)CC1)n2C[C@@H]1CCO1)c1cc(C(F)(F)F)c2c(c1)C1(CC1)C(=O)N2 [Compound 211],1.02
4,N#Cc1ccc(COc2cccc(C3=CCN(Cc4nc5cc(C(=O)Nc6ccc7c(c6)C6(CC6)C(=O)N7)ccc5n4C[C@@H]4CCO4)CC3)n2)c(F)c1 [Compound 182],0.32
5,Cc1n[nH]c2c(C(F)(F)F)cc(C(=O)Nc3ccc4nc(CN5CC=C(c6cccc(OCc7ccc(Cl)cc7F)n6)CC5)n(CC5CCO5)c4c3)cc12 (stereo not drawn) [Compound 287],2.98
6,COCCn1c(CN2CCC(c3cccc(OCc4ccc(Cl)cc4F)n3)CC2)nc2cc(C(=O)N3Cc4[nH]nc(N)c4C3)ccc21 [Compound 26],> 10000
7,O=C(Nc1ccc2c(c1)C1(CC1)C(=O)N2)c1ccc2nc(CN3CC=C(c4cccc(OCc5ccc(Cl)cc5F)n4)CC3)n(C[C@@H]3CCO3)c2c1 [Compound 266],3.19
8,COc1n[nH]c2ccc(C(=O)Nc3ccc4c(c3)nc(CN3CC=C(c5cccc(OCc6ccc(Cl)cc6F)n5)CC3)n4C[C@@H]3CCO3)cc12 [Compound 201],1.99
9,Cc1n[nH]c2ccc(NC(=O)c3ccc4c(c3)nc(CN3CC=C(c5cccc(OCc6ccc(Cl)cc6F)n5)CC3)n4C[C@@H]3CCO3)nc12 [Compound 191],3.69
10,Cc1cc(NC(=O)c2ccc3c(c2)nc(CN2CCC(c4cccc(OCc5ccc(Cl)cc5F)n4)CC2)n3C[C@@H]2CCO2)cc2c(C(F)F)n[nH]c12 [Compound 116],0.92
11,O=C(Nc1ccc2nc(CN3CC=C(c4cccc(OCc5ccc(Cl)cc5F)n4)CC3)n(C[C@@H]3CCO3)c2c1)c1ccc2[nH]c(=O)[nH]c2c1 [Compound 285],0.42
12,Cc1n[nH]c2c(F)cc(NC(=O)c3ccc4nc(CN5CC=C(c6cccc(OCc7ccc(C#N)cc7F)n6)CC5)n(CC5CCO5)c4c3)cc12 (stereo not drawn) [Compound 274],1.65
13,Cc1cc(NC(=O)c2ccc3c(c2)nc(CN2CCC(c4cccc(OCc5ccc(Cl)cc5F)n4)CC2)n3C[C@@H]2CCO2)cc2c(C3CC3)n[nH]c12 [Compound 114],1.04
14,Cc1cc(NC(=O)c2ccc3c(c2)nc(CN2CC=C(c4cccc(OCc5ccc(C#N)cc5F)n4)CC2)n3C[C@@H]2CCO2)cc2c(C3CC3)n[nH]c12 [Compound 185],1.32
15,CC(C)c1n[nH]c2ccc(C(=O)Nc3ccc4c(c3)nc(CN3CC=C(c5cccc(OCc6ccc(Cl)cc6F)n5)CC3)n4C[C@@H]3CCO3)cc12 [Compound 200],0.82
16,O=C(Nc1ccn2ncc(Cl)c2c1)c1ccc2c(c1)nc(CN1CC=C(c3cccc(OCc4ccc(Cl)cc4F)n3)CC1)n2CC1CCO1 (stereo not drawn) [Compound 149],34.6
17,O=C(Nc1cc(C(F)(F)F)c2[nH]ncc2c1)c1ccc2c(c1)nc(CN1CCC(c3cccc(OCc4ccc(Cl)cc4F)n3)CC1)n2C[C@@H]1CCO1 [Compound 108],2.39
18,Cc1n[nH]c2c(F)cc(C(=O)Nc3ccc4c(c3)nc(CN3CC=C(c5cccc(OCc6ccc(C#N)cc6F)n5)CC3)n4C[C@@H]3CCO3)cc12 [Compound 225],0.18
19,"COCCn1c(Cc2ccc(-c3cccc(OCc4ccc(C#N)cc4F)n3)cc2)nc2cc(C(=O)NCCc3ccc(O)cc3)ccc21 [Compound 1, 2-(4-(6-((4-cyano-2-fluorobenzyl)oxy)pyridin-2-yl)benzyl)-N-(4-hydroxyphenethyl)-1-(2-methoxyethyl)-1H-benzo[d]imidazole-5-carboxamide]",4150
20,O=C(NCC(=O)N1CC(F)(F)C[C@H]1C(=O)O)c1ccc2c(c1)nc(CN1CC=C(c3cccc(OCc4ccc(Cl)cc4F)n3)CC1)n2C[C@@H]1CCO1 [Compound 72],0.61
21,Cc1n[nH]c2c(C)cc(C(=O)Nc3ccc4nc(CN5CC=C(c6cccc(OCc7ccc(C#N)cc7F)n6)CC5)n(CC5CCO5)c4c3)cc12 (stereo not drawn) [Compound 291],0.75
22,Cc1cc(NC(=O)c2ccc3c(c2)nc(CN2CC=C(c4cccc(OCc5ccc(Cl)cc5F)n4)CC2)n3C[C@@H]2CCO2)c(C)c2c(C)n[nH]c12 [Compound 173],31.5
23,O=C(Nc1ccc2[nH]nc(C3CC3)c2c1)c1ccc2c(c1)nc(CN1CCC(c3cccc(OCc4ccc(Cl)cc4F)n3)CC1)n2C[C@@H]1CCO1 [Compound 112],6.18
24,O=C(NCC(=O)N1C[C@@H](F)C[C@H]1C(=O)O)c1ccc2c(c1)nc(CN1CCC(c3cccc(OCc4ccc(Cl)cn4)n3)CC1)n2C[C@@H]1CCO1 [Compound 48],4.36
25,Cc1n[nH]c2ccc(NC(=O)c3ccc4c(c3)nc(CN3CC=C(c5cccc(OCc6ccc(Cl)cc6F)n5)CC3)n4C[C@@H]3CCO3)c(F)c12 [Compound 176],0.87
26,O=C(Nc1ccc2nc(CN3CC=C(c4cccc(OCc5ccc(Cl)cc5F)n4)CC3)n(C[C@@H]3CCO3)c2c1)c1cc(F)c2c(c1)C1(CC1)C(=O)N2 [Compound 286],0.21
27,Cc1n[nH]c2ncc(NC(=O)c3ccc4c(c3)nc(CN3CC=C(c5cccc(OCc6ccc(Cl)cc6F)n5)CC3)n4C[C@@H]3CCO3)cc12 [Compound 189],3.54
